This is an account of results in US8470745B2, “Methods and compositions for obtaining and using biologically active multi-protein complexes” (priority 2006, dated 2013).

The subject of one test is NMDAR complexes. The test can be described thus: Activity test on immobilized NMDAR complexes (immunoblotting and immunofluorescence detection). In kind it is biochemical, rat. The note with it: Five mM SOV, 30° C. for 1 hour, vs control. The method, then: Experiments were performed on cortical tissue obtained from 3 week-old Sprague-Dawley rats. All procedures were conducted in strict adherence with the NIH Guide for the Care and Use of Laboratory Animals. Cortical tissue from 21 day-old rats was solubilized using a syringe in solubilization/immunoprecipitation buffer containing 0.1% Triton X-100, 0.2% β-mercaptoethanol, 50 mM Tris-HCl pH 7.5, 5 mM EDTA, 5 mM EGTA, 10 mg/ml of Sigma protease inhibitor cocktail, 1 mM phenylmethylsulfonyl fluoride. The tissue homogenate was centrifuged (15,000 g for 10 min at 4° C.) to remove insoluble material. The supernatantusprenat was kept at 4° C. and used later for immunoprecipitation. Protein A/G pre-coated 96-well plates (Pierce Biotechnology, Rockford, Ill.) were used for immunoprecipitation of active NMDA receptor complexes. The plates were washed with the solubilization/immunoprecipitation buffer and anti-NR1 antibody (20 μg) was added to each well in 100 μL of extraction buffer. Following a 2 hour incubation at room temperature, the wells were rinsed 3 times with solubilization/immunoprecipitation buffer and 100 μL of supernatant were added to each well. Following 4 hours incubation at 4° C., the wells were washed three times with a reaction buffer containing: 0.2% β-mercaptoethanol, 25 mM Tris-HCl pH 7.5, 30 mM MgCl2, 20 mM MnCl2, 0.5 mM DTT.
Fifty μL of reaction buffer, 500 μM ATP, and the agents to be tested were added to each well. The control wells contained 50 μL of reaction buffer alone or in the presence 500 μM ATP. All samples were incubated at 30° C. for 1 hour. […]
For fluorescence detection experiments, black 96-well plates were used to avoid fluorescence spill over. […] Multi-well plates were read on a Cytofluor 2350 fluorescence plate reader using the appropriate filters. […]
(A western blot detects proteins with antibodies after separation by electrophoresis.)

The test system of another test is GABAA receptor complexes. The test can be described thus: Tyrosine phosphorylation in isolated GABAA receptor complexes (Western blotting). The note with it: Five mM SOV, 30° C. for 1 hour, hippocampus tissue, vs control. In kind it is biochemical. As to the method:
To test the effect of PTP inhibitor SOV on isolated GABA receptor complexes, hippocampus tissue was removed and homogenized with the solubilization/immunoprecipitation buffer described above. GABAA receptor complexes were immunoprecipitated using anti-β2/β3 antibody (Upstate Biotechnology, Lake Placid, N.Y., USA) as described in Example 1. The immobilized complexes were rinsed and solubilization/immunoprecipitation buffer was replaced with reaction buffer. This reaction buffer was added to all the wells. Control wells contained only the reaction buffer or reaction buffer and ATP alone. Five mM of SOV was added to the rest of the wells and incubated at 30° C. for 1 hour. The reaction was stopped with a blocking buffer and samples rinsed and subjected to Western blotting with anti-pTyr and anti-β2/β3 antibodies.

Test [1] concerns α-7nACh receptor complexes. The test can be described thus: Tyrosine phosphorylation in isolated α-7nACh receptor complexes (Western blotting). In kind it is biochemical. The note with it: Five mM SOV, 30° C. for 1 hour, hippocampus tissue, vs control. As to the method:
To test the effect of PTP inhibitor SOV on isolated a-7nACh receptor complexes, hippocampus tissue was dissected from the brain and homogenized with the solubilization/immunoprecipitation buffer described above, with some modifications. The solubilization buffer contained 0.05% TritonX-100 instead of 0.1% as used in Example 1. Immobilized complexes were rinsed and solubilization/immunoprecipitation buffer was replaced with reaction buffer. This reaction buffer was added to all the wells. Control wells contained only the reaction buffer or reaction buffer and ATP alone. Five mM SOV was added to rest of the wells and incubated at 30° C. for 1 hour. The reaction was stopped with a blocking buffer and samples rinsed and subjected to Western blotting with anti-pTyr, anti-α7 antibodies.

In test [2] the test system is HCN4 ion channel complexes. Description: Tyrosine phosphorylation in isolated HCN4 ion channel complexes. The class given is biochemical. The note with it: Five mM SOV, 30° C. for 1 hour; rat ventricles; vs control. The method, then: To test the effect of PTP inhibitor SOV, rat ventricles were dissected and homogenized in solubilization/immunoprecipitation buffer and subjected to co-immunoprecipitation by incubation with anti-HCN4 polyclonal antibody (Alpha Diagnostic International, San Antonio, Tex.), as described in Example 1. Immobilized complexes were rinsed and solubilization/immunoprecipitation buffer was replaced with reaction buffer. This reaction buffer was added to all the wells. Control wells contained only the reaction buffer or reaction buffer and ATP alone. Five mM SOV was added to rest of the wells and incubated at 30° C. for 1 hour. The reaction was stopped with blocking buffer and samples were rinsed and subjected to Western blotting or fluorescence analysis using anti-pTyr and anti-HCN4 antibodies.

Where [3] appears, read: immunoblotting and immunofluorescence.

Regarding `[Na+].[Na+].[Na+].[O]=[V]([O-])([O-])[O-]` [SOV, sodium orthovanadate], in the test with NMDAR complexes (setting [3]), the “amount of NR2A/B in the receptor (ratio NR2A/B to NR1)” value was “decreased” and the “tyrosine phosphorylation of NR2A/B subunits (ratio of pTyr to NR2A/B)” value is given as “increased”. The “amount of PSD-95 in the receptor (ratio PSD-95 to NR1)” value in the test with NMDAR complexes was “decreased”. Moreover, the “tyrosine phosphorylation of β2/β3 subunits (ratio of pTyr to β2/β3)” value in the test with GABAA receptor complexes is recorded as “increased”. Also, the “tyrosine phosphorylation of α-7 subunits in the receptor (FIG. 5: ratio of pTyr to α-7)” value in test [1] is reported as “increased”. Also, the “tyrosine phosphorylation of HCN4 subunits (ratio of pTyr to HCN4)” value in test [2] was “increased”.
